The values that follow come from patent US20220175926A1, “TARGETED SYNERGISTIC CANCER IMMUNOTHERAPY” (The Brigham and Women's Hospital, Inc., priority 2019, published 2022).

The subject of one series is iBMDM. The series is described as follows: IL-1β secretion from iBMDM (ELISA). Type of series: cell-based, mouse. As to the method:
RAW 264.7 macrophages (ATCC, VA, USA) were seeded in a 96 well plate at a density of 20,000 cells per well. Cells were incubated with 10 ng/mL R848 (Sigma, MO, USA) and/or 20 ng/mL ICG (Sigma, MO, USA) for 24 h. Ultrasound irradiation (frequency: 1 MHz; duty cycle: 50%; power: 2 W/cm^2) was applied to these cells for up to 5 min. TNFα secretion was analyzed by mouse TNFα DuoSet ELISA (R&D Systems, MN, USA) following the manufacturer's instructions. To measure IL-1β secretion, immortal bone marrow derived macrophages or iBMDM (BCH, MA, USA)) were seeded in a 96 well plate at a density of 20,000 cells per well. Cells were incubated with 10 ng/mL PAPC (Avanti, AL, USA) and/or 20 ng/mL ICG for 24 h. Ultrasound irradiation (frequency: 1 MHz; duty cycle: 50%; power: 2 W/cm^2) was applied to these cells for up to 5 min. IL-1β secretion was analyzed by mouse IL-1β ELISA (Invitrogen, CA, USA) following the manufacturer's instructions. In some experiments, cells were also treated with 0.5, 1, or 2 mM of ROS scavenger N-acetyl-cysteine (Sigma, MO, USA) right before treatment with ultrasound.
On the technique in general: In an ELISA, binding on a coated surface is turned into a signal by an enzyme label.

In another series the test system is RAW 264.7 macrophages. The series is described as follows: TNFα secretion from RAW 264.7 macrophages (ELISA). Type of series: cell-based, mouse. The note with it: RAW264.7 macrophages; compared with no treatment control.
The nature of series [1]: Pharmacokinetic study after intravenous injection. Type of series: in vivo. As to conditions: C57BL/6 mice. The method, then: C57BL/6 mice were intravenously injected with free ICG or lipo-ICG (liposome encapsulated ICG). At predetermined time points (0.25, 1, 3, 7, and 24 h post injection), 50 ul blood were collected in Microvette 500 Z-gel tubes by submandibular bleeding and kept on ice. The samples were centrifuged at 10,000 g for 5 min at room temperature, and 10 ul of the serum were diluted to 100 ul with PBS and the fluorescence intensity was measured at Ex=780, Em=810 nm.

Series [2] can be described thus: Loading efficiency in liposomes. In kind it is physicochemical. As to conditions: sonosensitizer incubated with preformed liposomes at room temperature. As to the method:
The lipid suspension was extruded through the 100 nm polycarbonate membrane using the extruder (Avanti, AL, USA) to obtain blank liposomes. Ethanol was removed by dialysis overnight at 4° C. To load the sonosensitizer in liposomes, ICG was firstly conjugated to a lipid tail such as DOPE before incubation with preformed blank liposomes at room temperature for 30 min. Unloaded ICG was removed by using the PD-10 column (GE Healthcare). To load PAPC (Avanti, AL, USA) in liposomes, the proper amount of PAPC in DMSO stock solution was incubated with liposomes containing ICG at room temperature for 30 min and the obtained formulation was used without further purification. To load R848 (Sigma, MO, USA) in liposomes, blank liposomes were firstly prepared in 250 mM ammonium sulfate, and the external ammonium sulfate was exchanged to 10% sucrose by dialysis overnight at 4° C., followed by incubation with R848 at 55° C. for 30 min and removal of unloaded R848 by dialysis overnight at 4° C. To measure the size of liposomes, 10 ul of liposomes were diluted to 2 mL with PBS and the size was measured with Zeta sizer. To measure the amount of ICG, 10 ul liposomes were added with 190 ul DMSO and the fluorescence was measured at Ex=780 nm, Em=810 nm.

Another series relates to CT26. The series is described as follows: Transwell co-culture assay, viability of CT26 tumor cells cocultured with RAW 264.7 macrophages (XTT). Type of series: cell-based. The note with it: single component or component removed. The method, then: RAW 264.7 macrophages were seeded in a Transwell insert at a density of 200,000 cells per insert (Corning, N.Y., USA) and CT26 (ATCC, VA, USA) were seeded in the lower compartment at a density of 200,000 cells per well, which was separated by a porous membrane (well area: 0.3 cm^2, insert size: 6.5 mm). Cells were incubated with […] and/or 20 ng/mL ICG for 24 h. Ultrasound irradiation (frequency: 1 MHz; duty cycle: 50%; power: 2 W/cm^2) was performed for 5 min. The viability of tumor cells after treatment with different formulations in the absence or presence of ultrasound was determined by XTT Cell Proliferation Assay Kit (ATCC, VA, USA) following the manufacturer's instructions.

In the case of `CC(=O)N[C@@H](CS)C(=O)O` [NAC, N-acetyl-cysteine], the “IL-1β release on ROS depletion” value with iBMDM (ROS scavenger added to PAPC+ICG+US) is reported as “dose dependent reduction of IL-1β”.
`CCCCC/C=C\C/C=C\C/C=C\C/C=C\CCCC(=O)O[C@H](COC(=O)CCCCCCCCCCCCCCC)COP(=O)([O-])OCC[N+](C)(C)C` [PAPC, 1-palmitoyl-2-arachidonoyl-sn-glycero-3-phosphocholine]: the IL-1β release result in the series with iBMDM is reported as “didn't induce any detectable level of IL-1β”.
For `CC1(C)C(/C=C/C=C/C=C/C=C2\N(CCCCS(=O)(=O)O)c3ccc4ccccc4c3C2(C)C)=[N+](CCCCS(=O)(=O)[O-])c2ccc3ccccc3c21` [ICG, indocyanine green], the TNFα release result in the series with RAW 264.7 macrophages was “didn't induce significant TNFα release”. Moreover, the “detectability of ICG in serum after injection” value in series [1] is “not detectable within a few minutes after injection”. Further, in series [2], the loading efficiency entry is “less than 20%”. In the series with CT26, the CT26 cell viability entry is “modest decrease of CT26 cell viability”. The IL-1β release result in the series with iBMDM was “didn't induce any detectable level of IL-1β”.
